Measurements as given in PMC165585 (BMC Structural Biology, 2003).

What was measured:
[1] = biological target: T1, LysU (heat-inducible Escherichia coli lysyl-tRNA synthetase) (Escherichia coli, UniProt P0A8N5); assay: biochemical
T1 sequence (P0A8N5 2-505): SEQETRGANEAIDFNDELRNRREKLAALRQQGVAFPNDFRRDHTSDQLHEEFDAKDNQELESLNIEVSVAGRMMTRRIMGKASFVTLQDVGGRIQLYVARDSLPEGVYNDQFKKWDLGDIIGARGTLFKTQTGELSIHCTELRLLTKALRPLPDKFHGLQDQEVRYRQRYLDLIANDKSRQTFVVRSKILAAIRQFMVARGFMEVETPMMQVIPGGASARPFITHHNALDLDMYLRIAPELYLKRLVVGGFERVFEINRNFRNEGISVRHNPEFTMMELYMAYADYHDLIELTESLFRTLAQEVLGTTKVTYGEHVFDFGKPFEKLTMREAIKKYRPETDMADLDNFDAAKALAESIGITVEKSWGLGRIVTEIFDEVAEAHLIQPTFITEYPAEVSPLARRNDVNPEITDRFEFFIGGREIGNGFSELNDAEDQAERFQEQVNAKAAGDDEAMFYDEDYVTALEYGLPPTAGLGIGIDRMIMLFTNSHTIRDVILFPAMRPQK

[2] = biological target: T1, LysU (heat-inducible Escherichia coli lysyl-tRNA synthetase); assay: isothermal titration calorimetry; type: binding

Kd [2] | SMILES | Kd [1]
 | NCCCC[C@H](N)C(=O)O [lysine] | 7.96 ± 1.4 µM
1.22 ± 0.15 µM | Nc1ncnc2c1ncn2[C@@H]1O[C@H](COP(=O)(O)OP(=O)(O)CP(=O)(O)O)[C@@H](O)[C@H]1O [AMPPCP, β,γ-methyleneadenosine 5'-triphosphate] | 
